# “Also recorded” adds a separate entry of the source. Read-outs that look alike come from different tables or passages of the source.
# Assays:
# growth hormone secretion = experiment: GHRP induced growth hormone secretion, intravenous administration (Rat IV); format: in vivo
# How it was run: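 Female Sprague Dawley rats (24-30 days, 50-90 g) under intraperitoneal pentobarbitone received graded intravenous tail-vein peptide doses in pH 5.0 sodium acetate/mannitol buffer 20 min post-anaesthesia. Blood by cardiac puncture 10 min after dosing; serum GH measured by rat GH ELISA in duplicate.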
# rat pituitary cells = rat pituitary cells (Rattus norvegicus, UniProt O08725); experiment: Rat “pit” cell challenges: combinations with GHRP-6/GHRH, desensitization, somatostatin suppression, GHRP antagonist; format: cell-based
# Chain of rat pituitary cells (O08725 whole entry): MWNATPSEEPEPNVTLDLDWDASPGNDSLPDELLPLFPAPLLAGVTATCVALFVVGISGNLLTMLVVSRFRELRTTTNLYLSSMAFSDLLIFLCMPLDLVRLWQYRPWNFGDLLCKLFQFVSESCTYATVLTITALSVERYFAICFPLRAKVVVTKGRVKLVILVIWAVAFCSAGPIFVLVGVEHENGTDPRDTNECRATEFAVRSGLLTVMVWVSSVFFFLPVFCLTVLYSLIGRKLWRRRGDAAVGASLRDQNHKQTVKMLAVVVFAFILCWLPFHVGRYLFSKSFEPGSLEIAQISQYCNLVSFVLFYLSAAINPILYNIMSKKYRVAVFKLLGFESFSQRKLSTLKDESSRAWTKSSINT
# Experimental: Dispersion: Adult female Sprague-Dawley (160-180 g., Charles River) rats were group-caged in a 12:12 light:dark cycle with food and water available ad libitum. Pituitaries from ten rats were removed, the posterior pituitary discarded and the anterior pituitary placed in Hanks' Balanced Salt Solution (HBSS: without calcium chloride, w/o magnesium chloride, w/o magnesium sulfate; Gibco) containing 20 mM HEPES (Gibco) and 100 U/ml penicillin streptomycin (PS: JRH Biosciences). Under sterile conditions, pituitaries were rinsed twice then minced into small fragments with a razor blade. Fragments were resuspended in 5 ml of HBSS/HEPES containing 20 mg collagenase (Serva 17449) and 200 ml of 1 mg/ml DNase (Sigma) for a 40 min. incubation in a 37° C. gyrotory water bath shaker (New Brunswick Scientific Model G76; setting 10). After the incubation, fragments were triturated to yield small clumps and single cells. The cells were centrifuged 1000× g for 5 min, resuspended, counted and plated at a final cell concentration of 100,000 cells/ml. Incubation media was DME low glucose media w/NaHCO3 (Gibco) containing 20 mM hepes, 100 U/ml PS and 10% FBS (Hyclone A-111-L). Cells were plated at 0.5 ml per well in 48 well plates (Falcon) and incubated at 37° C. in 5% C02 for three days. […] The highest concentration of DMSO in media was 0.1%. Stock solutions (1 mM) of rat GHRH, somatostatin (Sigma) and GHRP antagonist HwkWfK were made fresh in media and diluted appropriately. The media used in all challenges and washing steps was DME low glucose with 20 mM Hepes, 100 U/ml PS, 10% FBS. Media was warmed to 37° C. and gassed by placing it into the incubator prior to challenge. On day three, the media was discarded and fresh media (approximately 1 ml) added for the first of three washes. After the last wash, the plate was placed back in the incubator for a 15 min pre-incubation. Then cells were washed 2× (with warmed and gassed media) and fresh 0.5 ml media were added for the second 15 min. pre-incubation. After the second pre-incubation cells were washed 2× as above and 0.5 ml of control and test solutions were added for a final 15 min incubation. After this incubation, the media were removed for subsequent GH ELISA. GH ELISA: A two-site ELISA was used to determine rat GH concentration in the media. Briefly, goat anti-rat GH antibody (lot#19164-20) was used to coat Nunc immunoplates overnight. After blocking and washing, standard (rat GH reference preparation: Parlow) and challenge media is diluted 1:20 prior to GH assay were added for a 1 hr room temperature incubation. STATISTICS: The mean for each group was determined and analyzed by one-way analysis of variance with a post-hoc Student-Newman-Keuls. Significance is defined as P<0.05. The EC50 was calculated using a 4-parameter curve-fit program (Kaleidagraph). Three to four independent EC50s were used to derive the mean and SEM.
# LH = LH release from pituitary cells (RIA); format: cell-based, rat; details: 100 nM; listed as (inip)-bbFK-NH2
# Experimental: (§1) Dispersion: Adult female Sprague-Dawley (160-180 g., Charles River) rats were group-caged in a 12:12 light:dark cycle with food and water available ad libitum. Pituitaries from ten rats were removed, the posterior pituitary discarded and the anterior pituitary placed in Hanks' Balanced Salt Solution (HBSS: without calcium chloride, w/o magnesium chloride, w/o magnesium sulfate; Gibco) containing 20 mM HEPES (Gibco) and 100 U/ml penicillin streptomycin (PS: JRH Biosciences). Under sterile conditions, pituitaries were rinsed twice then minced into small fragments with a razor blade. Fragments were resuspended in 5 ml of HBSS/HEPES containing 20 mg collagenase (Serva 17449) and […] of 1 mg/ml DNase (Sigma) for a 40 min. incubation in a 37° C. gyrotory water bath shaker (New Brunswick Scientific Model G76; setting 10). […] The cells were centrifuged 1000× g for 5 min, resuspended, counted and plated at a final cell concentration of 100,000 cells/ml. […] STATISTICS: The mean for each group was determined and analyzed by one-way analysis of variance with a post-hoc Student-Newman-Keuls. […] The EC50 was calculated using a 4-parameter curve-fit program (Kaleidagraph). […] RIA of pituitary hormones: LH, FSH, TSH, and Prolactin were determined with commercially available kits from Amersham, and ACTH levels were determined by a RIA kit from ICN. […]
# TSH = TSH release from pituitary cells (RIA); format: cell-based, rat; details: 100 nM; listed as (inip)-bbFK-NH2
# Experimental: as §1
# pituitary cells = experiment: Calcium flux experiment (Indo-1 AM loaded pituitary cells); format: cell-based, rat; details: 10 nM, 21 seconds after addition
# [1] = GHRP induced dose dependent weight gain in rats (sc minipump infusion, 14 days); format: in vivo, rat
# Experimental: Rat GHRH (1-43) was dissolved in the same buffer at 25 g/l.
# The next day these osmotic pumps were inserted into rats.
# Serum chemistries were measured by standard automated procedures.
# [2] = high dose (inip) b b F K-NH2 100 μg/day, GHRH 600 μg/day, 14 d infusion
compound,measurement,setting,value
"NCCCC[C@H](NC(=O)[C@H](Cc1ccccc1)NC(=O)[C@@H](Cc1ccc2ccccc2c1)NC(=O)[C@@H](Cc1ccc2ccccc2c1)NC(=O)C1CCNCC1)C(N)=O [(inip) b b F K amide, (inip)-DβNal-DβNal-Phe-Lys-amide]",RAT IV ED50,"growth hormone secretion; Table III, iv injection, serum GH 10 min after injection",0.2 µg
same,ED50 for induction of GH secretion,"growth hormone secretion; acute intravenous injection, 80 gram rats, doses 1.0, 0.2, 0.04 μg/injection",0.2 μg/rat
same,increase in GH levels over control,rat pituitary cells; 100 nM,3 fold
same,GH release in combination with GHRH,"rat pituitary cells; GHRP 100 nM plus GHRH 10 or 100 nM, listed as (inip)-bbFK-NH2",show synergy with 10 nM GHRH; also recorded: showed synergy with GHRH
same,GH release in combination with GHRP-6,"rat pituitary cells; both at 100 nM, listed as (inip)-bbFK-NH2",no additional or synergistic increase was observed; also recorded: no additional increase was observed
same,GH release in the presence of 20 nM somatostatin,"rat pituitary cells; coincubation with 20 nM somatostatin, listed as (inip)-bbFK-NH2",suppressed this enhanced release
same,GH release after sequential 15 min incubations with fresh compound (desensitization),"rat pituitary cells; three sequential 15 min incubations, 100 nM",no significant GH release compared to control
same,LH release,LH,had no effect on these hormone concentrations; also recorded: unchanged
same,TSH release,TSH,had no effect on these hormone concentrations; also recorded: unchanged
same,Ca++ flux,pituitary cells; listed as (inip)-bbFK-NH2,increased Ca flux
same,Ca++ flux,pituitary cells; listed as (inip)bbFK-NH2,increased C^++ flux
same,epiphyseal plate width,[1]; 14 d infusion,no statistically significant increase
same,pituitary and kidney weight,[1]; 14 d infusion,not affected
same,heart weight compared to excipient,"[1]; high dose 100 μg/day, GHRH 600 μg/day",tended to be increased
same,liver weight,"[1]; high dose (100 μg/day), 14 d infusion",10.14 ± 0.29 g
same,spleen weight,[1]; [2],628 ± 26 mg
same,thymus weight,[1]; [2],584 ± 34 mg
same,liver weight,"[1]; low dose (4 μg/day), 14 d infusion",9.40 ± 0.37 g
same,liver weight,"[1]; medium dose (20 μg/day), 14 d infusion",9.70 ± 0.29 g
same,body weight gain compared to excipient,"[1]; sc minipump 14 days, (inip) b b F K-NH2 4, 20, 100 μg/d, GHRH 600 μg/d, 90 day old female rats",dose-related weight gain; also recorded: significant body weight and organ weight gain
same,serum IGF-1 concentrations,either mode of delivery,not significantly affected
same,thymus weight,high dose infusion (100 μg/day),0.25 ± 0.03 g
same,epiphyseal plate width,high dose injections,191±8 μm
same,heart weight,high dose injections,1.15 ± 0.10 g
same,thymus weight,high dose injections,0.33 ± 0.02 g
same,eviscerated and skinned carcass weight,high dose injections (50 μg 2 times a day),152.4 ± 2.5 g
same,weight gain,"in 14 days, FIG. 20",36 ± 3 g
same,cartilage growth (epiphyseal plate width),infusions,did not significantly increase cartilage growth
same,skin weight compared to control,injections and low dose infusion,heavier
same,"soleus muscle, kidney and liver weight","injections or infusions, 14 days",unaffected
same,epiphyseal plate width,low dose injections,160±11 μm
same,eviscerated and skinned carcass weight,low dose injections (10 μg 2 times a day),152.8 ± 2.8 g
same,weight gain,"twice daily injections of 10 μg, adult female rats",30 gram

# Reference: US7094869B2, “Low molecular weight peptidomimetic growth hormone secretagogues” (Genentech, Inc., priority 1994, dated 2006)
